# Structures can show the parent of a compound that is named as a salt.
# Key:
# Test in all cases: Post-emergence efficacy, Method A
# Assay type in all cases: in vivo
# [1] = tested on: Eleusine indica (ELEIN); settings: 500 g/Ha, 100=total damage to plant, 0=no damage, evaluated after 7 and 14 days, read-out: Control of weed species after post-emergence application, ELEIN
# [2] = tested on: Digitaria sanguinalis (DIGSA); settings: 500 g/Ha, 100=total damage to plant, 0=no damage, evaluated after 7 and 14 days, read-out: Control of weed species after post-emergence application, DIGSA
# [3] = tested on: Amaranthus palmeri (AMAPA); settings: 500 g/Ha, 100=total damage to plant, 0=no damage, evaluated after 7 and 14 days, read-out: Control of weed species after post-emergence application, AMAPA
# [4] = tested on: Lolium perenne (LOLPE); settings: 500 g/Ha, 100=total damage to plant, 0=no damage, evaluated after 7 and 14 days, read-out: Control of weed species after post-emergence application, LOLPE
# [5] = tested on: Ipomoea hederacea (IPOHE); settings: 500 g/Ha, 100=total damage to plant, 0=no damage, evaluated after 7 and 14 days, read-out: Control of weed species after post-emergence application, IPOHE
# [6] = tested on: Chenopodium album (CHEAL); settings: 500 g/Ha, 100=total damage to plant, 0=no damage, evaluated after 7 and 14 days, read-out: Control of weed species after post-emergence application, CHEAL
# [7] = tested on: Setaria faberi (SETFA); settings: 500 g/Ha, 100=total damage to plant, 0=no damage, evaluated after 7 and 14 days, read-out: Control of weed species after post-emergence application, SETFA
# [8] = tested on: Euphorbia heterophylla (EPHHL); settings: 500 g/Ha, 100=total damage to plant, 0=no damage, evaluated after 7 and 14 days, read-out: Control of weed species after post-emergence application, EPHHL
# [9] = tested on: Echinochloa crus-galli (ECHCG); settings: 500 g/Ha, 100=total damage to plant, 0=no damage, evaluated after 7 and 14 days, read-out: Control of weed species after post-emergence application, ECHCG
Compound,pest or weed control at 500 g/ha [1],pest or weed control at 500 g/ha [2],pest or weed control at 500 g/ha [3],pest or weed control at 500 g/ha [4],pest or weed control at 500 g/ha [5],pest or weed control at 500 g/ha [6],pest or weed control at 500 g/ha [7],pest or weed control at 500 g/ha [8],pest or weed control at 500 g/ha [9]
O=C(O)CC[n+]1ccc(-c2ncno2)cc1 [Compound A14],40%,50%,100%,10%,20%,70%,60%,30%,50%
O=S(=O)([O-])CC[n+]1ccc(-c2cnns2)cc1 [Compound A19],30%,30%,100%,30%,50%,50%,40%,50%,40%
"O=S(=O)([O-])OCC[n+]1ccc(-c2csnn2)cc1 [Compound A65, 2-[4-(thiadiazol-4-yl)pyridin-1-ium-1-yl]ethyl sulfate]",20%,30%,30%,10%,20%,20%,10%,20%,20%
Cn1nccc1-c1cc[n+](CCOS(=O)(=O)[O-])cc1 [Compound A74],20%,30%,10%,10%,10%,40%,20%,20%,20%
Cc1nnc(-c2cc[n+](CC(=O)O)cc2)s1 [Compound A95],60%,10%,40%,0%,10%,30%,10%,10%,20%
O=C(O)C[n+]1ccc(-c2ccsn2)cc1 [Compound A81],40%,10%,70%,0%,0%,40%,10%,20%,10%
O=S(=O)([O-])C[n+]1ccc(-c2ccns2)cc1 [Compound A87],0%,0%,0%,0%,0%,10%,20%,20%,20%
O=C(O)C[n+]1ccc(-c2nccs2)cc1 [Compound A24],0%,10%,0%,0%,20%,40%,0%,40%,0%
"O=C(O)CC[n+]1ccc(-c2nc(C(F)(F)F)ns2)c(Br)c1 [Compound A79, 3-[3-bromo-4-[3-(trifluoromethyl)-1,2,4-thiadiazol-5-yl]pyridin-1-ium-1-yl]propanoic acid acetate]",90%,80%,90%,30%,40%,40%,70%,60%,80%
O=S(=O)([O-])CC[n+]1ccc(-c2nc(C(F)(F)F)co2)cc1 [Compound A46],0%,0%,30%,0%,0%,0%,0%,0%,0%
N#Cc1nsc(-c2cc[n+](CCC(=O)O)cc2)n1 [Compound A89],80%,90%,30%,10%,10%,30%,80%,20%,60%
Nc1nsc(-c2cc[n+](CCC(=O)O)cc2)n1 [Compound A92],20%,80%,100%,10%,20%,60%,60%,80%,60%
O=C(O)C[n+]1ccc(-c2csnn2)cc1 [Compound A53],0%,0%,10%,0%,20%,10%,10%,20%,10%
O=C(O)C[n+]1ccc(-c2ncno2)cc1 [Compound A13],50%,60%,100%,10%,30%,50%,70%,70%,50%
O=C(O)CC[n+]1ccc(-c2nccs2)cc1 [Compound A25],10%,10%,0%,0%,10%,10%,0%,0%,0%
O=S(=O)([O-])OCC[n+]1ccc(-c2nnco2)cc1 [Compound A64],20%,30%,50%,10%,20%,30%,20%,30%,50%
O=C(O)C[n+]1ccc(-c2ccns2)cc1 [Compound A86],20%,10%,40%,0%,10%,10%,10%,40%,20%
"O=S(=O)([O-])C[n+]1ccc(-c2cnns2)cc1 [Compound A3, [4-(thiadiazol-5-yl)pyridin-1-ium-1-yl]methanesulfonate]",50%,70%,100%,20%,80%,90%,80%,80%,40%
O=S(=O)([O-])CCC[n+]1ccc(-c2cnon2)cc1 [Compound A18],30%,30%,100%,10%,20%,50%,40%,50%,50%
Cn1nnnc1-c1cc[n+](CS(=O)(=O)[O-])cc1 [Compound A57],20%,30%,100%,0%,0%,80%,0%,20%,60%
